Experimental data published in publication PMC7277094 (Biomolecules, 2020).
Several values for one entry are separate records, joined by “and”; a condition that tells them apart may be missing. Equal entries are not always repeated. Where two headings read alike, the source gives them in different places.

Columns and labels:
Tlp3 LBD [1] = biological target: T1, Tlp3 LBD (Campylobacter jejuni subsp. jejuni, UniProt Q0P864); assay: Fluorescence-based thermal shift assay; format: binding, C. jejuni strain NCTC 11168; conditions: for ΔTm at 5000 µM: read-out: Thermal Shift ∆Tm; for Thermal Shift ∆Tm: 20 μM protein, 0.8–1.6 mM Biolog compound, Tm free protein 56.3 °C
Description: Tlp3 LBD from C. jejuni strain NCTC 11168 was expressed in E. coli, purified according to the previously published procedure and used for high-throughput screening against the compounds from the Biolog Phenotype Microarray (PM) libraries PM1, PM3B, and PM5 using thermal shift assays. […] Each plate contains 95 compounds and a negative control (water). Thermal-shift-based screening is based on the phenomenon that ligand-binding alters thermal stability of the protein, resulting in an increase or decrease in the protein’s melting temperature (Tm). Screening was performed by following the protocol previously described by McKellar et al., with minor modifications. The compounds in the Biolog PM plates were dissolved in 50 μL of water, yielding a final concentration of 10–20 mM (as indicated by the manufacturer). Each assay was performed in a 25 μL volume and contained 20 μM protein, 0.8–1.6 mM Biolog compound, 10 mM Tris-HCl pH 8.0, 150 mM NaCl, and 10× SYPRO orange reagent (5000× stock, catalogue number S5692; Sigma-Aldrich). The samples were heated from 35 °C to 80 °C at a ramp rate of 0.5 °C min^−1 using a Rotor-Gene Q real-time PCR cycler (Qiagen, Venlo, Netherlands). Protein denaturation was monitored by following changes in the SYPRO Orange fluorescence emission (λex 530 nm/λem 555 nm) that result from the dye binding to the exposed hydrophobic protein regions. All experiments were performed in triplicate. The midpoint of denaturation (the melting temperature Tm) was calculated by fitting the data to the Boltzmann sigmoidal equation for the two-state unfolding model using GraphPad Prism (version 7.02) (GraphPad Software, La Jolla, CA, USA). The thermal shift assay with the three potential ligands identified using in silico screening was performed at a ligand concentration of 5 mM, with other conditions the same.

Tlp3 LBD [2] = biological target: T1, Tlp3 LBD; assay: Isothermal titration calorimetry (ITC); format: binding, C. jejuni strain NCTC 11168; conditions: for ∆H: ITC binding enthalpy; for ∆H / ∆S / Kd: 25 °C; for ∆S: ITC binding entropy; for Kd / Binding to Tlp3 LBD detected by ITC: 10 µM Tlp3 LBD; for Binding to Tlp3 LBD detected by ITC: ligand at 10 mM
Description: Tlp3 LBD was dialysed against a buffer containing 100 mM Tris-HCl pH 8.0 and 150 mM NaCl. […] Calorimetry measurements were conducted on a VP-ITC MicroCal calorimeter (Malvern Instruments, UK) at 25 °C. The Tlp3 LBD sample (10 µM) in a 1.45 mL reaction cell was titrated with 25 successive 10 µL injections of ligand solution at a spacing of 200 s. All measurements were made in triplicate and corrected for heat changes measured when the ligand was titrated into the buffer. The data were integrated and normalised for protein concentration to generate binding isotherms.

C. jejuni WT strain = assay: Nutrient-depleted hard agar plug chemotaxis assay, WT strain; format: cell-based, C. jejuni NCTC 11168; conditions: plugs prepared from 50–200 mM compound, CI > 1 attractant, < 1 repellent
Tlp3 LBD [3] = assay: Co-crystallisation with Tlp3 LBD and X-ray electron density analysis; format: binding, C. jejuni; conditions: co-crystallised with 8 mM ligand; 1.4–1.5 Å resolution
Description: The solution was then clarified by centrifugation at 13,000 g, 4 °C for 20 min and protein crystallisation was carried out by the hanging drop vapour diffusion method using crystallisation conditions similar to those described previously. Briefly, crystals were grown in 2 µL hanging drops suspended over 500 µL reservoir solution containing 22% (w/v) polyethylene glycol 3350, 100 mM sodium citrate pH 5.0 and 200 mM ammonium sulphate. The hanging drop was prepared by adding 1 µL of the protein/ligand mix to 1 µL of the reservoir solution. Crystals of all Tlp3 LBD/ligand complexes had similar unit-cell parameters and belonged to space group P2_1 (Table 2), with two molecules in the asymmetric unit.
To perform data collection at cryogenic temperatures, the crystals were briefly soaked in a cryoprotectant solution consisting of 26% (w/v) polyethylene glycol 3350, 100 mM sodium citrate pH 5.0, 200 mM ammonium sulphate, 10% (v/v) glycerol, and 10 mM respective ligand, and then flash-cooled by plunging them into liquid nitrogen. X-ray diffraction data were collected at 100 K on the MX1 and MX2 beamlines of the Australian Synchrotron. The data were processed using iMOSFLM [65] and scaled with AIMLESS [66] from the CCP4 software suite.
The crystal structures were determined using molecular replacement with PHASER [68] and the protein coordinates of the Tlp3 LBD/isoleucine complex (PDB code, 4XMR) as a search model. The models were refined with PHENIX [69] and manually rebuilt where necessary using COOT [70]. Analysis of the stereochemical quality of the final models was performed using MOLPROBITY [71]. The accessible surface area was calculated using AREAIMOL from CCP4. The structure figures were produced using PyMOL 4.1 [72].

Tlp3 LBD [4] = biological target: T1, Tlp3 LBD; parameters: method as in PMID 26457436; conditions: L-isoleucine not among ligands titrated here; listed as footnoted to previous study ref 32; cited from earlier work
Tlp3 LBD Tyr118Ala = system: Tlp3 LBD Tyr118Ala; parameters: method as in PMID 26457436; conditions: Tyr118Ala vs wild-type Tlp3 LBD ref 32; cited from earlier work
C. jejuni Δtlp3 mutant = assay: Nutrient-depleted hard agar plug chemotaxis assay, Δtlp3 mutant; format: cell-based, C. jejuni NCTC 11168; conditions: CI > 1 attractant, < 1 repellent
[5] = single-site model, NB = no binding detected by ITC

T1 sequence (Q0P864 entry or part of it): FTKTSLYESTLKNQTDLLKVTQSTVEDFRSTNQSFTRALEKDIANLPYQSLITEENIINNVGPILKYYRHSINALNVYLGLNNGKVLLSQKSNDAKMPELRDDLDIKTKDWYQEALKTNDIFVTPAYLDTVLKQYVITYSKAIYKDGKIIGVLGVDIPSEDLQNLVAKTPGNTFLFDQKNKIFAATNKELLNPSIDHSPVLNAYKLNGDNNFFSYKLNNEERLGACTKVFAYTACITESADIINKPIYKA

## CCC[C@@H](C)C(N)C(=O)O (stereo in doubt) [β-methyl-L-norleucine]
Tlp3 LBD [1]
  ΔTm at 5000 µM: 3.7 ± 0.2 °C
Tlp3 LBD [2]
  ∆H: -6.2 ± 0.2 kcal/mol
  ∆S: −4.77 cal mol^−1 deg^−1
Tlp3 LBD [2]; [5]
  Kd: 294 ± 14 µM

## Nc1ccn([C@H]2C[C@H](O)[C@@H](CO)O2)c(=O)n1 [2-deoxycytidine]
Tlp3 LBD [1]
  Thermal Shift ∆Tm: 1.4 ± 0.8 °C
Tlp3 LBD [2]
  Binding to Tlp3 LBD detected by ITC: no binding

## CCC(C)(C)[C@H](N)C(=O)O [3-methyl-L-isoleucine]
Tlp3 LBD [1]
  ΔTm at 5000 µM: 2 ± 0.1 °C
Tlp3 LBD [2]
  ∆H: -5.7 ± 0.2 kcal/mol
  ∆S: −4.03 cal mol^−1 deg^−1
Tlp3 LBD [2]; [5]
  Kd: 484 ± 30 µM
Tlp3 LBD [2]; compared with single methyl substitution at Position 3 (L-isoleucine)
  Reduction of binding affinity (two methyl groups at Position 3): at least 5 fold

## CC(C)[C@H](C)[C@H](N)C(=O)O [4-methyl-L-isoleucine]
Tlp3 LBD [1]
  ΔTm at 5000 µM: 2.8 ± 0.3 °C
Tlp3 LBD [2]
  ∆H: -5.1 ± 0.2 kcal/mol
  ∆S: −1.01 cal mol^−1 deg^−1
Tlp3 LBD [2]; [5]
  Kd: 324 ± 20 µM

## C[C@H](N)C(=O)N[C@H](C(=O)O)[C@H](C)O [Ala-Thr]
Tlp3 LBD [1]
  Thermal Shift ∆Tm: 1.1 ± 0.3 °C
Tlp3 LBD [2]
  Binding to Tlp3 LBD detected by ITC: no binding

## C[C@H](N)C(=O)O [L-alanine]
Tlp3 LBD [1]
  Thermal Shift ∆Tm: −0.6 ± 0.7 °C
Tlp3 LBD [2]
  ∆H: -150.2 ± 54.5 kcal/mol
  ∆S: −495.50 cal mol^−1 deg^−1
Tlp3 LBD [2]; 50 mM ligand
  Kd: ~5000 µM and 5000 µM
Tlp3 LBD [2]; [5]
  Kd: 4980 ± 917 µM
C. jejuni WT strain
  Chemotactic response (chemotactic index CI): Tlp3-dependent attractant response

## N=C(N)NCCC[C@H](N)C(=O)O [L-arginine]
Tlp3 LBD [2]
  Binding to Tlp3 LBD detected by ITC: no binding
Tlp3 LBD [3]
  Electron density for ligand bound to Tlp3 LBD in crystal: no electron density

## N[C@@H](CC(=O)O)C(=O)O [L-aspartic acid]
Tlp3 LBD [2]
  Binding to Tlp3 LBD detected by ITC: no binding
Tlp3 LBD [3]
  Electron density for ligand bound to Tlp3 LBD in crystal: no electron density

## CC[C@H](C)[C@H](N)C(=O)O [L-isoleucine]
Tlp3 LBD [4]
  ∆H: -4.4 ± 0.2 kcal/mol
  ∆S: 3.6 cal mol^−1 deg^−1
Tlp3 LBD Tyr118Ala
  Reduction in binding affinity on Tyr118Ala substitution: ≥ 35 fold

## CC(C)C[C@H](N)C(=O)O [L-leucine]
Tlp3 LBD [1]
  Thermal Shift ∆Tm: 2.4 ± 0.2 °C
Tlp3 LBD [2]
  ∆H: -4.6 ± 0.1 kcal/mol
  ∆S: 2.9 cal mol^−1 deg^−1
Tlp3 LBD [2]; [5]
  Kd: 105 ± 6 µM

## NCCCC[C@H](N)C(=O)O [L-lysine]
Tlp3 LBD [2]
  Binding to Tlp3 LBD detected by ITC: no binding
Tlp3 LBD [3]
  Electron density for ligand bound to Tlp3 LBD in crystal: no electron density

## N[C@@H](Cc1ccccc1)C(=O)O [L-phenylalanine]
Tlp3 LBD [1]
  Thermal Shift ∆Tm: −0.3 ± 0.4 °C
Tlp3 LBD [2]
  ∆H: -5.9 ± 0.3 kcal/mol
  ∆S: −5.44 cal mol^−1 deg^−1
Tlp3 LBD [2]; [5]
  Kd: 730 ± 55 µM
C. jejuni WT strain
  Chemotactic response (chemotactic index CI): Tlp3-dependent attractant response

## CC(C)[C@H](N)C(=O)O [L-valine]
Tlp3 LBD [1]
  Thermal Shift ∆Tm: 1.3 ± 0.1 °C
Tlp3 LBD [2]
  ∆H: -4.4 ± 0.2 kcal/mol
  ∆S: 0.8 cal mol^−1 deg^−1
Tlp3 LBD [2]; [5]
  Kd: 405 ± 27 µM

## O=C(O)CC(O)C(=O)O (stereo not drawn) [malic acid]
Tlp3 LBD [3]
  Electron density for ligand bound to Tlp3 LBD in crystal: no electron density

## COC(=O)C(C)=O [methyl pyruvate]
Tlp3 LBD [1]
  Thermal Shift ∆Tm: −1.8 ± 0.0 °C
Tlp3 LBD [2]
  Binding to Tlp3 LBD detected by ITC: no binding

## c1ncc2nc[nH]c2n1 [purine]
Tlp3 LBD [2]
  Binding to Tlp3 LBD detected by ITC: did not bind

## N[C@@H](CO)C(=O)O [serine, L-serine]
C. jejuni Δtlp3 mutant
  Chemotactic response (chemotactic index CI): did not affect

## CCC[C@@H](N)C(=O)O [α-amino-N-valeric acid]
Tlp3 LBD [1]
  Thermal Shift ∆Tm: 1.4 ± 0.3 °C
Tlp3 LBD [2]
  ∆H: -6.5 ± 0.2 kcal/mol
  ∆S: −4.5 cal mol^−1 deg^−1
Tlp3 LBD [2]; [5]
  Kd: 168 ± 9 µM
